Data published in publication PMC8115619, “Generation of a chemical genetic model for JAK3” (Scientific Reports, 2021).
pIC50: −log10 of the molar value.

Assays:
MNK2 = MNK2 (Homo sapiens, UniProt Q9HBH9); assay: Selectivity screen MNK2; assay type: biochemical; settings: 1 µM inhibitor, mean
Description: For the in vitro kinase assay, JAK3 (5–20 mU diluted in 50 mM Tris pH 7.5, 0.1 mM EGTA, 0.05% β-mercaptoethanol, 1 mg/ml BSA) was assayed against PDKtide ([…]) in a final volume of 25.5 µl containing 50 mM Tris pH 7.5, 0.1 mM EGTA, 0.05% β-mercaptoethanol, 100 µM substrate peptide, 10 mM magnesium acetate and 0.02 mM [33P-γ-ATP] (50–1000 cpm/pmole) and incubated for 30 min at room temperature. Assays were started by the addition of the ATP and stopped by addition of 5 µl of 0.5 M (3%) orthophosphoric acid and then harvested onto P81 Unifilter plates with a wash buffer of 50 mM orthophosphoric acid. To determine the Km for ATP, assays were run using 1, 5, 10, 20, 50, 100, 200, 400, 500 μM ATP and Km derived by non-linear regression fitting to the Michaelis–Menten equation v = Vmax[S]/(Km + [S]). IC50 values for inhibitors via non-linear regression using a parameter model: Y = Bottom + (Top–Bottom)/(1 + (IC50/X)^HillSlope). Non-linear regression was carried out in Prism (version 8). In vitro selectivity screen was carried out as described previously.

[1] = tested on: IFNβ induced STAT1 phosphorylation in BMDMs; set-up: method as in PMID 26258521; settings: cited from earlier work
[2] = tested on: IL-4 induced STAT6 phosphorylation in wild type BMDMs; assay: Inhibitor washout, IL-4 induced STAT6 phosphorylation, wild type BMDMs; assay type: cell-based, mouse; settings: for inhibition of IL-4 induced STAT6 phosphorylation after inhibitor washout, wild type BMDMs: washed 3 times in PBS, IL-4 30 min to 2 h after washout, 10 μM TL6-144, 100 μM PF-06651600
Description: Covalent inhibitors would be predicted to have very slow off rates and therefore inhibition should remain even if the unbound inhibitors are washed out of the cells. To test this, cells were treated with a high concentration of inhibitor for 2 h before being washed 3 times in PBS and then incubated in media without inhibitor for 0.5 to 24 h. If the inhibitor acts via a non-covalent mechanism, inhibition would not be expected to remain following washout from the cells. Ruxolitinib is a non-covalent pan-JAK inhibitor that can inhibit multiple JAK-STAT pathways in macrophages. […] To confirm this was not the case, similar experiments were done in JAK3 Cys905Ser knockin cells. […] Similar experiments were also carried out with PF-06651600. […] As the level of inhibition was lower at 2 h post washout than 30 min the experiment was repeated to look at 4 and 24 h time points for the washout step.
Figure 4 Effect of inhibitor washout on JAK3 inhibition. BMDMs were isolated from wild type and JAK3 Cys905Ser knockin mice. […] The macrophages were then either stimulated with 10 ng/ml IL-4 for 30 min or washed 3 times in PBS and then incubated in media without inhibitor for the indicated times. The cells were then stimulated with IL-4 for 30 min and STAT6 phosphorylation determined by immunoblotting using levels of ERK1/2 as a loading control.
Bone marrow derived macrophages (BMDMs) were cultured as described. Briefly, bone marrow was flushed in PBS from the femurs and tibias of mice. Cells were cultured on bacterial grade plastic for 7 days at 37 °C, 5% CO2. Cells were then detached using Versene (Gibco), re-plated on tissue culture plastic in BMDM media (in DMEM supplemented with 10% heat inactivated FBS (Labtech), 2 mM L-glutamine, 100 U/ml penicillin G, 100 μg/ml streptomycin and 0.25 μg/ml amphotericin, 5 ng/ml M-CSF) and used within 48 h. Where indicated cells were stimulated with 10 ng/ml IL-4, 10 ng/ml GM-CSF, 10 ng/ml IL-10 or 10 ng/ml IFNβ. All cytokines were from PeproTech.
Cells were lysed directly into SDS sample buffer and aliquots run on 10% polyacrylamide gels using standard methods. Proteins were transferred onto nitrocellulose membranes, and specific proteins were detected by immunoblotting. Antibodies against tyrosine phosphorylated STATs were from Cell Signaling Technology (phospho-STAT1 #9167, phospho-STAT3 #9131, phospho-STAT5 #4322 and phospho-STAT6 #9361). The total ERK1/2 antibody used as a loading control was also from cell Signaling Technology (#4695). HRP-conjugated secondary antibodies were obtained from Pierce. Bands were detected using Clarity ECL reagents from BioRad and imaged on a Licor Odyssey Fc system. Quantification was carried out using Licor Image Studio software. After correction for the ERK1/2 levels to account for loading differences, percentage inhibition was calculated relative to the IL-4 stimulated condition. IC50 values were calculated using the same methods as for the in vitro IC50 values.

[3] = tested on: IL-10 induced STAT3 phosphorylation in BMDMs; set-up: method as in PMID 26258521; settings: cited from earlier work
[4] = tested on: IL-2 induced STAT5 phosphorylation in T cells from JAK3 Cys905Ser knockin mice; assay: IL-2 induced STAT5 phosphorylation in JAK3 Cys905Ser knockin T cells; assay type: cell-based, mouse; settings: CD8 T cells, inhibitor 30 min, 10 ng/ml IL-2 30 min
Description: (§1) (A) Single cell suspensions were prepared from the spleens of wild type mice. […] Cells were then stimulated with 10 ng/ml IL-4 for 30 min and the levels of phosphorylated STAT6 determined by immunoblotting. (B) As (A) except cells were stimulated with 10 ng/ml IL-2 and the levels of phosphorylated STAT5 determined. (C) CD8 T cells were expanded from the lymph nodes of wild type and JAK3 Cys905Ser knockin mice. Cells were rested in the absence of IL-2 for 60 min then incubated with the indicated concentrations of PF-06651600 for a further 30 min before stimulation with 10 ng/ml of IL-2 for 30 min. The levels of phosphorylated STAT5 and total ERK1/2 were then determined.
(§2) Lymph Nodes were harvested from the mice and a single cell suspension in PBS made by passing the tissue through a […] strainer. The cells were counted and seeded at density of 10^6 cells/ml in RPMI supplemented with10% heat inactivated FBS (Labtech), 2 mM L-glutamine, 100 U/ml penicillin G, 100 μg/ml streptomycin, 0.25 μg/ml amphotericin and 50 μM β-mercaptoethanol and stimulated with 1 μg/ml anti-CD28 (cat:16-0281-82; clone:37.51 Thermo Fisher), 1 μg/ml anti CD3e (cat:16-0031-85, Clone:145-2C11 Thermo Fisher), 20 ng/ml of IL-2 and 1 ng/ml of IL-12. The cells were cultured for 36 h and then the cell suspension was diluted 5 times with RPMI media containing 20 ng/ml of IL-2. […]

JAK1 = settings: ATP 40 μM; read-out: In vitro IC50 JAK1; cited from earlier work
[5] = tested on: IL-2 induced STAT5 phosphorylation in wild type CD8 T cells; assay: IL-2 induced STAT5 phosphorylation in wild type T cells; assay type: cell-based, mouse; settings: inhibitor 30 min, 10 ng/ml IL-2 30 min
Description: as §1, §2

[6] = inhibitor 2 h, 0.5 μM Ruxolitinib

Sequence of MNK2 (Q9HBH9 whole entry): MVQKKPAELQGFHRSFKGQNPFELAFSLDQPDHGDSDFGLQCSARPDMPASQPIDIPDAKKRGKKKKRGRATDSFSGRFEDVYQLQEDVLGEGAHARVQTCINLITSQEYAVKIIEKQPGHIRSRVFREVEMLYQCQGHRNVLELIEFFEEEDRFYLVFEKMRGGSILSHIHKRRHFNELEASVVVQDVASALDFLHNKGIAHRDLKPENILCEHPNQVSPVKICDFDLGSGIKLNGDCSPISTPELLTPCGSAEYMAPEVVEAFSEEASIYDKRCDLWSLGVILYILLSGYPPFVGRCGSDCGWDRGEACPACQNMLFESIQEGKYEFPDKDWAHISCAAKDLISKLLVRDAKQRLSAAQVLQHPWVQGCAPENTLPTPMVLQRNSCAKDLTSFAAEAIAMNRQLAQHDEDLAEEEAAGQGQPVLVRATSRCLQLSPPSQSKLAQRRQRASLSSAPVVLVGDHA

Row | Compound | activity remaining in the presence of the inhibitor: MNK2 (MNK2) | inhibition of IFNβ signaling in macrophages ([1]; 5 μM) | block of STAT phosphorylation by IFNβ ([1]; 10 μM as printed in discussion) | block of IL-4 induced STAT6 phosphorylation without washout, wild type BMDMs ([2]; inhibitor 2 h, no washout, 0.5 μM Ruxolitinib, 10 μM TL6-144) | inhibition of IL-4 induced STAT6 phosphorylation after inhibitor washout, wild type BMDMs [2, 6] | inhibition of IL-10 signaling in macrophages ([3]; 5 μM) | block of STAT phosphorylation by IL-10 ([3]; 10 μM as printed in discussion) | inhibition of IL-4 induced STAT6 phosphorylation 24 h after inhibitor washout, wild type BMDMs ([2]; 100 μM PF-06651600 for 2 h, washout, 24 h time point) | block of IL-2 induced STAT5 phosphorylation in T cells from JAK3 Cys905Ser knockin mice [4] | pIC50 (JAK1) | block of IL-2 induced STAT5 phosphorylation in isolated wild type T cells [5]
1 | C=CC(=O)Nc1cccc(CNc2nc(Nc3ccc(N4CCOCC4)cc3)ncc2Cl)c1 [TL8-52] | 66 | – | – | – | – | – | – | – | – | – | –
2 | C=CC(=O)Nc1cccc(CNc2nc(Nc3ccc(N4CCN(C)CC4)cc3OC)ncc2Cl)c1 [TL6-144] | 70 | does not inhibit | did not block | completely blocked | much lower than in control cells | does not inhibit | did not block | – | – | – | –
3 | C=CC(=O)N1C[C@H](Nc2ncnc3[nH]ccc23)CC[C@@H]1C [PF-06651600, 1-((2S,5R)-5-((7H-Pyrrolo[2,3-d]pyrimidin-4-yl)amino)-2-methylpiperidin-1-yl)prop-2-en-1-one, reference compound] | – | – | – | – | retained | – | – | Some inhibition was retained | did not block | < 5.00 | able to block
